For assay [1], the target named is human recombinant PDE4D protein (Homo sapiens, UniProt Q08499). Description: PDE4D scintillation proximity assay (SPA). Type of assay: biochemical. The following applies: purified human recombinant PDE4D. The procedure:
PDE4 enzymatic activity was measured in a scintillation proximity assay using purified human recombinant PDE4D protein.

In assay [2] the target is T1, PDE4A4 (Homo sapiens, UniProt P27815). Description: IMAP fluorescence polarisation PDE4 subtype assay. Type of assay: biochemical. The protocol: The binding reagent complexes with phosphate groups on nucleotide monophosphate generated from cyclic nucleotides (cAMP/cGMP) through phosphodiesterases. With fluorescence polarisation detection, binding causes a change in the rate of the molecular motion of the phosphate bearing molecule, and results in an increase in the fluorescence polarization value observed for the fluorescent label attached to the substrate. […] All assays were performed in 3% (final) DMSO for the IMAP assay.
T1 sequence (P27815 whole entry): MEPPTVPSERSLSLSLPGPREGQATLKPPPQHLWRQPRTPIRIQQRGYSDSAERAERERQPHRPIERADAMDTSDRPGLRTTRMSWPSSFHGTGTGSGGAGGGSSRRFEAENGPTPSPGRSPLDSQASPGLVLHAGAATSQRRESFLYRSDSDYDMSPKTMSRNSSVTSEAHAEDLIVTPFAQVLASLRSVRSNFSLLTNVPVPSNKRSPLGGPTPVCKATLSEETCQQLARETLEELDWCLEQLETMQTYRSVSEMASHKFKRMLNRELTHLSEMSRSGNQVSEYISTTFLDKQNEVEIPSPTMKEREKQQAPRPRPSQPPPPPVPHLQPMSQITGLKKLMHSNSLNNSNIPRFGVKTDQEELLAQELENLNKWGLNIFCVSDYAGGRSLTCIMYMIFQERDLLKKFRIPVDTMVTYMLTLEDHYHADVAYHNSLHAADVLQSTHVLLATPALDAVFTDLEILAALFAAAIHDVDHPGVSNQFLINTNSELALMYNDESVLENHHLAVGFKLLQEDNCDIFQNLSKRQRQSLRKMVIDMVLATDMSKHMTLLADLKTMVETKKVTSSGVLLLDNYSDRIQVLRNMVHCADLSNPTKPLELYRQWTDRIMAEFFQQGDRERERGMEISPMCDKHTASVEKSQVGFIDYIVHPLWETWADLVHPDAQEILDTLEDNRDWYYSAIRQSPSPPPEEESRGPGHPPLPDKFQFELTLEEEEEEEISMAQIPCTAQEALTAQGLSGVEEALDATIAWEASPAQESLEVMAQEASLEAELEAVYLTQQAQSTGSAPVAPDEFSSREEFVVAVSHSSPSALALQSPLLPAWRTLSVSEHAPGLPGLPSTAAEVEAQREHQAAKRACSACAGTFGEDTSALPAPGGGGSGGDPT

The target in a further assay is PDE4B2 (Homo sapiens, UniProt Q07343). Description: IMAP fluorescence polarisation PDE4 subtype assay. The class given is biochemical. The protocol:
Inhibition of PDE4 subtypes by the compound of formula (I) was tested using IMAP technology, which is based on the high affinity binding of phosphate by immobilized metal coordination complexes on nanoparticles. The binding reagent complexes with phosphate groups on nucleotide monophosphate generated from cyclic nucleotides (cAMP/cGMP) through phosphodiesterases. With fluorescence polarisation detection, binding causes a change in the rate of the molecular motion of the phosphate bearing molecule, and results in an increase in the fluorescence polarization value observed for the fluorescent label attached to the substrate.
Stocks of the compound of formula (I) were prepared in 100% DMSO. All assays were performed in 3% (final) DMSO for the IMAP assay. The compound was tested in duplicate against the PDE isoform panel at a range of concentrations (10^−10, 10^−9, 10^−8, 10^−7 M).

The next assay deals with PDE4C2 (Homo sapiens, UniProt Q08493). Description: IMAP fluorescence polarisation PDE4 subtype assay. Type of assay: biochemical.
PDE4C2, sequence (Q08493 107-712): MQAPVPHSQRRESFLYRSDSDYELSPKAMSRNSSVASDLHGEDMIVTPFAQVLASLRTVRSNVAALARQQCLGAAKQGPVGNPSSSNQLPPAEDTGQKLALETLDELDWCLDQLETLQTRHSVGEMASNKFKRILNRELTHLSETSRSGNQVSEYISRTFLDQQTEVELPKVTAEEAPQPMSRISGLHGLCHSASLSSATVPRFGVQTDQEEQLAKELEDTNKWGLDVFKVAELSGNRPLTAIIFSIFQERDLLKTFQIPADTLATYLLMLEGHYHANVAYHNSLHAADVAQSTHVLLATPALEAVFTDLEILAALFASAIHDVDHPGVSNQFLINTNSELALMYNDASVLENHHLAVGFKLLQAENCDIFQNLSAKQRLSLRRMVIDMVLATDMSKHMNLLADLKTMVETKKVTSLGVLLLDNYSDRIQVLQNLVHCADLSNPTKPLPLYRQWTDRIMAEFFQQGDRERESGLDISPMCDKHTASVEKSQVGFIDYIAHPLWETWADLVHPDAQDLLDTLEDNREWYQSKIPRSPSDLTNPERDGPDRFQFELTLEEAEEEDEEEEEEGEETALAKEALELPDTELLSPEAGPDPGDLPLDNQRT
The test system of assay [3] is TNF-α release from human peripheral blood mononuclear cells. Description: TNF-α release, serum-free, hPBMC, LPS. Type of assay: cell-based. The following applies: PBMC, 18 hours. The protocol: TNF-α, Serumfree, hPBMC, LPS
Cultures of human PBMC isolated from buffy coats were stimulated with lipopolysaccharide to activate the monocytes and to release TNF-α. PBMC were isolated from fresh buffy coats and frozen for later use. On the assay day, cells were thawed, washed in serum free medium (RPMI1640 with 25 mM HEPES, 1% pen/strep, […] L glutamine and 0.5% human serum albumin) and living cells were counted. Test compounds were diluted in DMSO and further diluted in serum-free medium and pipetted into wells of 384 well tissue culture plates. LPS was added to the cells which shortly thereafter were added to the wells with titrated test compounds and incubated for 18 hours at 37° C. The next day, the level of TNF-α in the culture supernatant was quantitated by homogenous time-resolved fluorescence (HTRF) where FRET was measured at 665 nm and normalized to the fluorescence of europium cryptate at 620 nm. The effect (inhibition of TNF-α release) of a test compound was calculated using equation 1: […]
Fluorescence intensities, measured at 665 nm and 620 nm, were used to calculate the 665/620 ratio as an estimate of the level of secreted TNF-α. Sx denotes the 665/620 ratio associated with the test compound. So and Sc denote the 665/620 ratios associated with 0.1% DMSO and 1E-05 M compound (II), respectively.
This model describes a sigmoidal curve with an adjustable baseline, a. […]

Another assay has as its system IFN-γ. Description: Human whole blood cytokine secretion assay (TruCulture). Type of assay: cell-based. The following applies: read-out: % inhibition at 20 nM, IFN-γ, mean of 3 experiments. The protocol:
(§1) TruCulture blood collection and incubation tubes were tested with fresh human whole blood with or without addition of 20 nM of the compound of formula (I). The best results were obtained using heparin-stabilised blood and anti-CD3/CD28 test tubes.

Another assay concerns IL-13. The description is as above. Type of assay: cell-based. The following applies: 20 nM. The procedure:
as §1

A further assay relates to IL-1. The assay is described as above. The following applies: read-out: % inhibition at 20 nM, IL-1, mean of 3 experiments. The class given is cell-based. The protocol:
as §1

The subject of a further assay is IL-2. The assay is described as above. Type of assay: cell-based. The following applies: read-out: % inhibition at 20 nM, IL-2, mean of 3 experiments. The protocol:
as §1

The next assay deals with IL-4. Described as above. The class given is cell-based. The following applies: read-out: % inhibition at 20 nM, IL-4, mean of 3 experiments. The procedure:
as §1

A further assay has as its system IL-8. Described as above. The class given is cell-based. The following applies: 20 nM. The procedure:
as §1

Assay [4] deals with TNF-α. Described as above. Type of assay: cell-based. The following applies: read-out: % inhibition at 20 nM, TNF-α, mean of 3 experiments. The procedure:
as §1

The target in a further assay is PDE4A1 (Homo sapiens, UniProt P27815). Description: biochemical.
PDE4A1, sequence (P27815 1-647 isoform P27815-4): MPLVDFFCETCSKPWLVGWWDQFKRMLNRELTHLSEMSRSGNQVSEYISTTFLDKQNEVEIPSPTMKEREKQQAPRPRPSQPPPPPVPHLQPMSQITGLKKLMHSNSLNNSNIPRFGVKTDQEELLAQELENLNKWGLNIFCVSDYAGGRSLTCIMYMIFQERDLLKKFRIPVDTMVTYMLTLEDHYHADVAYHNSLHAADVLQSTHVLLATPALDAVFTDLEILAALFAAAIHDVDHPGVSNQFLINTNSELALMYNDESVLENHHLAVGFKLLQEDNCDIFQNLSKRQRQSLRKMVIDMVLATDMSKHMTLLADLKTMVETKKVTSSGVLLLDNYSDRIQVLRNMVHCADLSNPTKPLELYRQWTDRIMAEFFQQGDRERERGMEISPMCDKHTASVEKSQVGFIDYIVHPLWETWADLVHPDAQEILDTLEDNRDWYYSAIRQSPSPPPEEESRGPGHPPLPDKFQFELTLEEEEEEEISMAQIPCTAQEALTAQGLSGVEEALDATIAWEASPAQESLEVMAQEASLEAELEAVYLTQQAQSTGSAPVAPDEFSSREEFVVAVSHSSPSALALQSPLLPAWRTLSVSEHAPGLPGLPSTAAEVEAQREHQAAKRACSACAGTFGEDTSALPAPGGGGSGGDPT
Assay [5] has as its target T1, PDE4A4. Description: biochemical.
For another assay, the target named is PDE4A10 (Homo sapiens, UniProt P27815). Description: biochemical.
PDE4A10, sequence (P27815 1-825 isoform P27815-6): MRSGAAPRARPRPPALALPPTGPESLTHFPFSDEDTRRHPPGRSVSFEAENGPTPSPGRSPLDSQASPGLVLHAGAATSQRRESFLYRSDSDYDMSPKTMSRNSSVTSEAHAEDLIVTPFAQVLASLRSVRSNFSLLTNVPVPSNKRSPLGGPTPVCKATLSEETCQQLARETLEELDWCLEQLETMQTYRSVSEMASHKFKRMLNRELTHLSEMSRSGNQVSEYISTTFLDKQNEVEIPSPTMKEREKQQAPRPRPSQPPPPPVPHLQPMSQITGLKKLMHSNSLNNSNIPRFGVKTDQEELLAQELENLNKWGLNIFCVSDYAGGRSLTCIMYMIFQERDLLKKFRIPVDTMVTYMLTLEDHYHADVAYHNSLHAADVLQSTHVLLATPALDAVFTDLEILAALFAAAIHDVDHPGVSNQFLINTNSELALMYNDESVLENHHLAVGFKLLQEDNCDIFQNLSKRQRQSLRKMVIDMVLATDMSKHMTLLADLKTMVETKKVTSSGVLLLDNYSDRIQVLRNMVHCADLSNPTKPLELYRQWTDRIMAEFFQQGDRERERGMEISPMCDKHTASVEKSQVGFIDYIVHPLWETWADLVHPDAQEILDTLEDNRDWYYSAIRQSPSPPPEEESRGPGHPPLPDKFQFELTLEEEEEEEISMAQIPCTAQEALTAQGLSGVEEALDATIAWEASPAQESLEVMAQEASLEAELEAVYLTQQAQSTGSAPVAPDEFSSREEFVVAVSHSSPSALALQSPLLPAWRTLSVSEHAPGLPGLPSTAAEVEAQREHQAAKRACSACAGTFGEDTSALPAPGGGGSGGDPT
The test system of assay [6] is TNF-α. Description: LPS-induced TNF-α in ferrets after single oral administration. The following applies: oral 1, 3 and 10 mg/kg; 1 hour after LPS (3 mg/kg ip).

SMILES strings stand for the structures.

PDE4B2, sequence (Q07343 1-564 isoform Q07343-2): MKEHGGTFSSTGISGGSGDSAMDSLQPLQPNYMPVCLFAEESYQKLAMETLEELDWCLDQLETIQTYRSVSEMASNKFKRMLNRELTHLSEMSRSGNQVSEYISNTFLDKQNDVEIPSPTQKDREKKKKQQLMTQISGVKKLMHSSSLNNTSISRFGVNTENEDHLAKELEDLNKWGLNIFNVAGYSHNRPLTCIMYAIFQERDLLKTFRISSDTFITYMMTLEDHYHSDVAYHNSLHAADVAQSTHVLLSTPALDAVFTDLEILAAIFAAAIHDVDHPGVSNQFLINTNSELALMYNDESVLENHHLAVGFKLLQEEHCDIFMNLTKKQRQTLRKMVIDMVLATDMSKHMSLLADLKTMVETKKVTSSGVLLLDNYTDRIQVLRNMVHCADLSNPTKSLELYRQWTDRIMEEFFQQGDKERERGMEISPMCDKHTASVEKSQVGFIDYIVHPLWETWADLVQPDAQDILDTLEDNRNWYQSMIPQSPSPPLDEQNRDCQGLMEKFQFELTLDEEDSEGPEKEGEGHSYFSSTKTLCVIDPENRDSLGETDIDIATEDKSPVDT
human recombinant PDE4D protein, sequence (Q08499 whole entry): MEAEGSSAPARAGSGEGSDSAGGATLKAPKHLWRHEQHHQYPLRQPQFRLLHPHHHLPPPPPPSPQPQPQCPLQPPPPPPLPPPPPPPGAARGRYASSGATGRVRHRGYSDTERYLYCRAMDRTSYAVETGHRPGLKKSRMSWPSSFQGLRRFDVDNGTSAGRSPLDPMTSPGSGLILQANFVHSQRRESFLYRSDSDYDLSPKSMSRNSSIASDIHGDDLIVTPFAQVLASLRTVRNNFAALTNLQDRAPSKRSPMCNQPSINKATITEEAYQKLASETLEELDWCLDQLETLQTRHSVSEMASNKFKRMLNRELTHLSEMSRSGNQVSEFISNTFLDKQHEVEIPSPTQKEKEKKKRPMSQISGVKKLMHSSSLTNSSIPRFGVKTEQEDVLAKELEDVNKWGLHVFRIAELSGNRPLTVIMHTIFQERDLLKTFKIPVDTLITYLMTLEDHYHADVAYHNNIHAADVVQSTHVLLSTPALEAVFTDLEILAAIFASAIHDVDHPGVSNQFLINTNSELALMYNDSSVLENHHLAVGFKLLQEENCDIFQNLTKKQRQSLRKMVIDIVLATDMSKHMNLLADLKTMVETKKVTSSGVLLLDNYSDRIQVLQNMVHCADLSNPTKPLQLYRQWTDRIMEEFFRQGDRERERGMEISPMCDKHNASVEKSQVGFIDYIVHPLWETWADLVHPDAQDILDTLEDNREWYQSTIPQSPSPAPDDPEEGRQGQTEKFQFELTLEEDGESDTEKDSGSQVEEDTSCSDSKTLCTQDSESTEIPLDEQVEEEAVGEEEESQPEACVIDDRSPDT

Take `O=C(Cc1c(Cl)c[n+]([O-])cc1Cl)c1ccc(OC(F)F)c2c1OC1(CCS(=O)(=O)CC1)O2` [Compound (I), 2-(3,5-Dichloro-1-oxido-pyridine-4-yl)-1-(7-difluoro-methoxy-2′,3′,5′,6′-tetrahydro-spiro[1,3-benzodioxole-2,4′-(4H)-thiopyran-1′,1′-dioxide]-4-yl)ethanone]: the values for the EC50 in assay [1] and in assay [3] were 14.7 nM and 11.4 nM, respectively. Besides, the inhibition at 0.1 µM against PDE4A4 [2] (compound 10^−7 M) was 47%; on PDE4B2 (compound 10^−7 M), 61%. The figures for the inhibition at 0.01 µM on PDE4A4 [2] (compound 10^−8 M) and against PDE4B2 (compound 10^−8 M) were 24% and 41%, respectively. Also, the results for the inhibition at 0.001 µM against PDE4A4 [2] (compound 10^−9 M) and on PDE4B2 (compound 10^−9 M) were 0% and 18%, respectively. For the same compound, the values for the inhibition at 0.0001 µM at PDE4A4 [2] (compound 10^−10 M), against PDE4B2 (compound 10^−10 M) and against PDE4C2 (compound 10^−10 M) were 0%, 12% and 9%, respectively. The “Inhibition (%)” value on PDE4C2 (compound 10^−7 M (100 nM)) was “not significantly inhibited”. In addition, the Emax in [3] is 102%. In addition, the inhibition at 0.02 µM was found to be 54% in the assay with IFN-γ; 40% in the assay with IL-1; 50% with IL-2; 44% in the assay with IL-4; 60% in the assay with TNF-α [4]. The “Inhibition of IL-13 secretion (in words)” value in the assay on IL-13 was “not clearly inhibited”. Besides, the “Inhibition of IL-8 secretion (in words)” value with IL-8 is “not clearly inhibited”. For the same compound, the figures for the IC50 at PDE4A1, at PDE4A4 [5] and against PDE4A10 were 16 nM, 11 nM and 52 nM, respectively. Further, the “increase of TNF-α levels observed at 1 hour” value with TNF-α [6] is “attenuated, in a clear dose-related manner”.

The record behind these values is US20250268876A1, “TREATMENT OF HIDRADENITIS SUPPURATIVA WITH ORISMILAST” (UNION THERAPEUTICS A/S, priority 2021, published 2025).
